# In publication PMC6943527, “Are the Hydantoin-1,3,5-triazine 5-HT6R Ligands a Hope to a Find New Procognitive and Anti-Obesity Drug? Considerations Based on Primary In Vivo Assays and ADME-Tox Profile In Vitro” (Molecules, 2019):
# Entries after “also recorded” stand apart in the source; their conditions may differ.
# Tests used:
# [1] = molecular target: T1, CYP2D6 (Homo sapiens, UniProt P10635); assay: CYP2D6 P450-Glo drug-drug interaction assay; format: in vitro ADME; details: summary in comparison to SUVN-502
# T1 construct: purchased Promega (Madison, WI, USA)
# Procedure: (§1) The influence of triazine derivatives on two the most involved in drug metabolism CYP (cytochrome P450) isoforms CYP3A4 and CYP2D6 was also investigated.
# (§2) The study was performed using the CYP3A4 P450-Glo^TM and CYP2D6 P450-Glo^TM commercial tests provided by Promega (Madison, WI, USA). The influence of compounds on CYPs activity was tested in white polystyrene, flat-bottom Nunc^TM MicroWell^TM 96-well microplates (Thermo Scientific, Waltham, MA USA), and the bioluminescence signal was measured with a microplate reader (EnSpire) in luminescence mode, as described previously. KMP-10 and DJ-18 were tested in triplicate in the range of 0.01–25 µM for both isoforms’ P450 cytochrome. KE and QD were used as the reference compounds for CYP3A4 and CYP2D6, respectively.
# [2] = Model of excessive eating (palatable diet), 3-week administration; format: in vivo, male Wistar rats
# Procedure: (§3) The experiments were carried out on male Wistar rats. Their initial body weight was 210–230 g. The animals were housed in pairs in plastic cages in constant temperature facilities exposed to a light–dark cycle; water and food were available ad libitum. The control and experimental groups consisted of eight animals each. All experiments were conducted according to the guidelines of the Animal Use and Care Committee of the Jagiellonian University and were approved for realization (2013 and 2015, Poland; Permissions No 136/2013 and 258/2015).
# In order to determine the anorectic activity of KMP-10, its effect on caloric and water intake in the model of excessive eating was assessed. Male Wistar rats were housed in pairs. Two groups of 8 rats were fed diets consisting of milk chocolate with nuts, cheese, salted peanuts, and 7% condensed milk; these rats also had access to a standard feed (Labofeed B, Morawski Manufacturer Feed, Poland) and water ad libitum for 3 weeks. The palatable control group (palatable diet + vehicle) received vehicle (1% Tween 80, i.p.), while the palatable test group (palatable diet + KMP-10 5 mg) was intraperitoneally injected with KMP-10 at the dose 5 mg/kg b.w./day dissolved in 1% Tween 80. The intakes of food and water were evaluated daily. On the 22th day, 20 min after the i.p. administration of heparin 1000 units/rat and thiopental (70 mg/kg b.w.), blood, peritoneal fat pads, liver were collected from animals.
# The palatable diet contained 100 g of peanuts—614 kcal; 100 mL of condensed milk—131 kcal; 100 g of milk chocolate with hazelnuts—[…]; and 100 g of cheese (Greek type)—270 kcal.
# The spontaneous activity of rats was measured on the 1st, 14th and 20th day of the treatment with a special RFID-system—TraffiCage (TSE-Systems, Germany). The animals were subcutaneously implanted with transmitter identification (RFID), which enabled the presence and time spent in different areas of the cage to be counted; the data were then grouped in a special computer program.
# To determine the glucose or cholesterol or triglyceride levels in blood, standard enzymatic and spectrophotometric tests (Biomaxima S.A. Lublin, Poland) were used. The substrate was decomposed with enzymes that were appropriate for the relevant product, which was converted to a colored compound. Coloration was proportional to the concentration. The absorbance was measured at a wavelength of 500 nm.
# [3] = molecular target: T2, CYP3A4 (Homo sapiens, UniProt P08684); assay: CYP3A4 P450-Glo drug-drug interaction assay; format: in vitro ADME
# T2 construct: purchased Promega (Madison, WI, USA)
# Procedure: as §1, §2
# [4] = system: human embryonic kidney (HEK)-293 cells; design: method as in PMID 30282913; details: highest concentration 100 µM; cited from earlier work
# [5] = system: human serum albumin (HSA) and α1-acid glycoprotein (AGP); assay: Plasma protein binding, TRANSIL XL PPB assay
# Procedure: (§4) The immobilized HSA and AGP used in this study was included in the commercial test TRANSIL^XL PPB (plasma protein binding) assay.
# (§5) The study was performed with use of the commercial TRANSIL^XL PPB Assay (Sovicell, Leipzig, Germany). The test was performed according to recommendations from the protocol provided by the manufacturer. […] Next, the plate was centrifugated at 750 g for 10 min. The supernatants were collected and analyzed by LC/MS.
# (§6) The total fraction bound was estimated by:(3) fb=1−1/1+[HSA]/KDHSA+[AGP]/KDAGP
# [6] = Plasma protein binding, TRANSIL XL PPB assay; details: human, immobilized HSA and AGP at 24:1 (TRANSIL XL PPB assay)
# Procedure: as §4, §5, §6
# [7] = Metabolic stability and metabolic pathways in human liver microsomes
# Procedure: The pharmacokinetic parameters of compounds were estimated by using human liver microsomes (HLMs) (Sigma-Aldrich, St. Louis, MO, USA). The t1/2 values and intrinsic clearances (CLint) were calculated with IS by using the protocols and formulas proposed by Obach [38]. […] VL was used as the reference unstable drug.
# [8] = Food and water intake, rats fed standard diet only; format: in vivo, male Wistar rats; details: 5 mg/kg b.w. i.p., vs control group
# Procedure: as §3
# The standard diet contained 100 g of feed—280 kcal.
# Male Wistar rats (190–220 g) were housed in pair. The control group (standard diet + vehicle) received vehicle (1% Tween 80, i.p.), while the test group (standard diet + KMP-10 5 mg) was intraperitoneally injected with KMP-10 at the dose 5 mg/kg b.w./day dissolved in 1% Tween 80. The intakes of food and water were evaluated daily.
# [9] = design: method as in PMID 30282913; details: "conditional" anxiety-like assay; cited from earlier work
# [10] = 5 mg/kg b.w., vs group fed the palatable feed
# [11] = model of excessive eating, 5 mg/kg b.w./day i.p.
# [12] = palatable diet, 5 mg/kg b.w./day i.p., 3 weeks, vs obesity control group
# T2 sequence (P08684 whole entry): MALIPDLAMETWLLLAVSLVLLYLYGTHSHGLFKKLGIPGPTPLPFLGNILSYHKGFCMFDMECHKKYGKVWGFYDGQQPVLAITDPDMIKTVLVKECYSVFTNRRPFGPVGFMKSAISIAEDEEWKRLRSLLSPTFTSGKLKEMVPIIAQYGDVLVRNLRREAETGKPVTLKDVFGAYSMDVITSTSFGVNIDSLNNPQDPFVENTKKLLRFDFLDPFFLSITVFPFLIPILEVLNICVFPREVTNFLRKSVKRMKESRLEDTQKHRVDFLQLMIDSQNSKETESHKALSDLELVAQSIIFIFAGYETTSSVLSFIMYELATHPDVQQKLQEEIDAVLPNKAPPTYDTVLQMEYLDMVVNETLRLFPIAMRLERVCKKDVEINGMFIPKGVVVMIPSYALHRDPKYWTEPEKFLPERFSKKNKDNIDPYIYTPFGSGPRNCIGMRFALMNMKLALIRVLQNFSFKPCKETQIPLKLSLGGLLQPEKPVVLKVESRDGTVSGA
# T1 sequence (P10635 whole entry): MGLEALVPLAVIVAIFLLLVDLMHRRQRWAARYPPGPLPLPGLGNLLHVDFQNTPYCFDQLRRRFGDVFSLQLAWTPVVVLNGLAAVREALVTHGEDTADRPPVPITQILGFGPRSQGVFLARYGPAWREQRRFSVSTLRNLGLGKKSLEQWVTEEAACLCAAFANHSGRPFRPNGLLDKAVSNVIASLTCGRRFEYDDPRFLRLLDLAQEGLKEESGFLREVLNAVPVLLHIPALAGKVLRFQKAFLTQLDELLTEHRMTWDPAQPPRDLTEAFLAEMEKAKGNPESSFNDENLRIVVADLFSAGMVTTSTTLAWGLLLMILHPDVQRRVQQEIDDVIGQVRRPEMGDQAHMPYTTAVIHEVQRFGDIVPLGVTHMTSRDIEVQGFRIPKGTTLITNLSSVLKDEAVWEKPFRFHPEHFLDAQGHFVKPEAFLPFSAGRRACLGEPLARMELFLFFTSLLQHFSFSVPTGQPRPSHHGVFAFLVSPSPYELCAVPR
smiles,measurement,setting,value
"CN1CCN(c2nc(N)nc(CN3C(=O)NC(C)(c4ccc5ccccc5c4)C3=O)n2)CC1 (centres unmarked) [KMP-10, 3-((4-amino-6-(4-methylpiperazin-1-yl)-1,3,5-triazin-2-yl)methyl)-5-methyl-5-(naphthalen-2-yl)imidazolidine-2,4-dione]",Influence on CYP2D6,[1],almost no influence
same,HDL cholesterol,[2]; [10],significantly increased; also recorded: significant increase
same,Total cholesterol in blood,[2]; [10],significantly decreased
same,Plasma glucose,[2]; [11],did not reduce
same,Plasma triglyceride,[2]; [11],did not reduce
same,Amount of calories consumed,[2]; [12],significantly reduced
same,Water intake,[2]; [12],but not water intake
same,Amount of peritoneal fat,"[2]; three-week chronic treatment, 5 mg/kg b.w./day i.p.",did not reduce
same,Effect on CYP3A4 activity,[3]; highest used dose of 25 µM,slight stimulation effect
same,Influence on CYP3A4,[3]; summary in comparison to SUVN-502,almost no influence
same,HEK-293 cells viability,[4],no effect
same,PPB KD,"[5]; immobilized HSA and AGP 24:1, 5 µM compound",112 µM
same,"PPB KD, fold higher than warfarin",[5]; vs warfarin,~ 10 fold
same,"fraction unbound at 12 min, 5 µM",[6],0.155
same,"Metabolic Pathway, metabolite M1","[7]; HLMs, 120 min incubation",demethylation
same,"Metabolic Pathway, metabolite M2","[7]; HLMs, 120 min incubation",hydroxylation
same,"Metabolic Pathway, metabolite M3","[7]; HLMs, 120 min incubation",demethylation and hydroxylation
same,"Metabolic Pathway, metabolite M4","[7]; HLMs, 120 min incubation",hydroxylation and dehydrogenation
same,Intrinsic Clearance CLint,"[7]; HLMs, reactions terminated at 5, 15, 30 and 45 min",3.74 mL/min/kg
same,"t1/2, fold longer than verapamil","[7]; HLMs, vs unstable reference verapamil",~ 8 fold
same,CLint scaled,"[7]; human, liver microsomes",3.74 mL/min/kg
same,half-life,"[7]; human, liver microsomes, Half-Life t1/2, HLMs, reactions terminated at 5, 15, 30 and 45 min",3.98 h
same,half-life,"[7]; human, liver microsomes, t1/2 in vitro, HLMs, as restated in comparison to SUVN-502",> 3 h
same,Amount of calories consumed,[8],significantly reduced
same,Water intake,[8],significantly lower
same,Anxiolytic-like effects in Vogel-conflict test,[9],confirmed
